From patent US20040170653A1, “Tumour peptide antigen produced from human mdm2 proto-oncogene” (priority 2001, published 2004)
Where two headings read alike, the source gives them in different places.

Legend:
HLA-A2.1 = HLA-A2.1 (Homo sapiens, UniProt P04439, D140Y/D185E/D98H/E176V/E277Q/G131W/G231S/I119V/I121R/I166T/I218V/L300P/L318F/N151K/N90K/P208A/P217A/Q86G/Q94H/R138H/R169H/T345S); assay: Competition test: inhibition of A2.1 binding of peptide p53 264-272, read as p53-specific CTL lysis of loaded EA2 cells; conditions: for inhibition of the A2.1 binding of the competing peptide p53 264-272: EA2 cells with 0.01 μg p53 264-272, 4-hour test; for A2.1-binding activity (in words): competitive binding test
[1] = tested on: A2K^b- and CD8×A2K^b transgenic mice; assay: A2.1-restricted immunogenicity of synthetic peptides after immunization; cytotoxicity test of induced CTL on peptide-loaded T2A2K^b cells; type: in vivo, mouse; conditions: peptide immunization in IFA, in vitro stimulation, 4-hour cytotoxicity test
T2 cells = assay: Cytotoxicity test (51Cr release) of hdm2 81-88-specific CTL on peptide-loaded T2 target cells (peptide titration, peptide specificity); type: cell-based, human; conditions: for absolute maximal lysis: peptide titration
EL4 cells (H-2^b) = assay: Cytotoxicity test of hdm2 81-88-specific CTL on peptide-loaded A2.1-negative EL4 cells (A2.1 restriction); type: cell-based, mouse
mature DC = assay: CTL recognition of activated mature dendritic cells, 6-hour cytotoxicity test; type: cell-based; conditions: cells loaded with peptide 10 μM
[2] = tested on: tyrosinase-specific CTL clone IVSB; assay: CTL recognition of antigen-activated T cells, 6-hour cytotoxicity test; type: cell-based, human; conditions: cells loaded with peptide 10 μM
Method: FIG. 22: Absence of substantial recognition of antigen-activated T cells. CTL A2 81, CTL CD8×A2 K^b 81, allo-A2.1-reactive CTL and CTL CD8×A2 K^b Flu M1 were tested as effector cells under the E:T ratios indicated in a 6-hour cytotoxicity test against tyrosinase-specific CTL clone IVSB (●) and the same cells loaded with hdm2 81-88 peptide (10 μM) (▴). The target cells were treated with the anti-A2.1 monoclonal antibody PA2.1 as shown (∘).
An A2.1-positive CTL clone “IVSB” having specificity for the tyrosinase peptide 369-377 was produced and made available using technically customary methods.
The lytic reactivity of the effector cells against various target cells was checked in a ^51Cr release test (Theobald et al., 1995). T2 and T2A2 K^b cells were employed as target cells for peptide titration tests. 1-5 Mio target cells were labeled for 60-90 min with 150 μCi of Na (^51Cr) 04 (1 mCi/ml) (NEN Life Science, Belgium). […] The cells were then centrifuged off (1300 rpm, 5° C., 9 min), the supernatant (0.1 ml/well) was taken off and the ^51Cr release was measured using a gamma-“counter” (Canberra Packard, Dreieich). The percentage specific lysis (SL) was calculated according to the following formula: [formula] […]

resting T cells = assay: CTL recognition of resting lymphohemopoietic cells, 6-hour cytotoxicity test; type: cell-based; conditions: cells loaded with peptide 10 μM
resting B cells = assay: as above; type: cell-based; conditions: cells loaded with peptide 10 μM
PBMC = assay: as above; type: cell-based; conditions: cells loaded with peptide 10 μM

## LLGDLFGV [hdm2 81-88, oligopeptide, amino acid positions 81 to 88 of the hdm2 proto-oncoprotein]
HLA-A2.1; 10 μg test peptide
  inhibition of the A2.1 binding of the competing peptide p53 264-272: 100%
HLA-A2.1
  A2.1-binding activity (in words): strongly binding
[1]
  A2.1-restricted and peptide-specific CTL response: demonstrated
T2 cells; CTL line A2 81, E:T 10:1, 4-hour test, read-out: peptide concentration at half-maximal lysis of the target cells
  EC50: 69 pM
T2 cells; CTL line CD8×A2K^b 81, E:T 10:1, 4-hour test, read-out: peptide concentration at half-maximal lytic activity
  EC50: 36 pM
T2 cells; CTL lines A2 81 and CD8×A2 K^b 81, 4-hour test
  lysis of peptide-loaded T2 cells by both hdm2 81-88-specific CTL lines: lyzed efficiently
T2 cells; I° CTL A2 81, 6-hour test, read-out: peptide concentration at half-maximal lysis of the target cells
  EC50: 950 pM
T2 cells; I° CTL A2 81
  absolute maximal lysis: 62%
T2 cells; I° CTL CD8×A2 K^b 81, 6-hour test, read-out: peptide concentration at half-maximal lysis of the target cells
  EC50: 200 pM
T2 cells; I° CTL CD8×A2 K^b 81
  absolute maximal lysis: 100%
EL4 cells (H-2^b); CTL from immunized A2K^b- or CD8×A2K^b-transgenic mice, 2 μg peptide
  recognition of peptide-loaded EL4 cells by CTL induced by hdm2 81-88: not recognized
EL4 cells (H-2^b); CTL lines A2 81 and CD8×A2 K^b 81
  lytic activity of hdm2 81-88-reactive CTL lines on peptide-loaded EL4 cells: no lytic activity at all
Mature DC
  CTL lysis after loading with exogenous peptide: reconstituted
[2]
  CTL lysis after loading with exogenous peptide: reconstitute
Resting T cells
  CTL recognition after loading with exogenous peptide: reconstituted
Resting B cells
  CTL recognition after loading with exogenous peptide: reconstituted
PBMC
  CTL recognition after loading with exogenous peptide: reconstituted

## hdm2 33-41: synthetic hdm2 peptide, residues 33-41 (LLLKLLKSV; UniProt Q00987 33-41, looked up, fragment)
HLA-A2.1; 10 μg test peptide
  inhibition of the A2.1 binding of the competing peptide p53 264-272: 100%
HLA-A2.1
  A2.1-binding activity (in words): strongly binding
[1]
  A2.1-restricted and peptide-specific CTL response: demonstrated

## hdm2 48-57: synthetic hdm2 peptide, residues 48-57 (YTMKEVLFYL; UniProt Q00987 48-57, looked up, fragment)
HLA-A2.1; 10 μg test peptide
  inhibition of the A2.1 binding of the competing peptide p53 264-272: 100%

## hdm2 80-88: synthetic hdm2 peptide, residues 80-88; contaminated with hdm2 81-88 (DLLGDLFGV; UniProt Q00987 80-88, looked up, fragment)
HLA-A2.1; 10 μg test peptide
  inhibition of the A2.1 binding of the competing peptide p53 264-272: 100%
HLA-A2.1
  A2.1-binding activity (in words): strongly binding
[1]
  A2.1-restricted and peptide-specific CTL response: demonstrated
T2 cells; HPLC fraction 23, T2 cells, CTL CD8×A2 K^b 81, E:T 20:1
  recognition of HPLC-purified peptide by hdm2 81-88-specific CTL: cross-reactivity

## hdm2 101-110: intermediately binding synthetic hdm2 peptide, residues 101-110 (TMIYRNLVVV; UniProt Q00987 101-110, looked up, fragment)
HLA-A2.1
  A2.1-binding activity (in words): intermediately binding
[1]
  A2.1-restricted and peptide-specific CTL response: demonstrated

## tyrosinase 369-377: A2.1-binding peptide tyrosinase 369-377, positive control [reference compound]
HLA-A2.1; 3 μg test peptide
  inhibition of the A2.1 binding of the competing peptide p53 264-272: 100%
HLA-A2.1; 10 μg test peptide
  inhibition of the A2.1 binding of the competing peptide p53 264-272: 100%
